A short description of data set [1]: Lutein distribution in human cadaveric eyes after corneo-scleral iontophoresis, two-photon microscopy. The settings on record: 2.5 mA for 5 min cornea/sclera, 80 min rest. It is filed as in vitro ADME. The procedure:
(§1) A typical iontophoretic setting is made of two components: ocular applicator and a return electrode both connected to a generator. In this experiment, the ocular applicator comprised 2 electrodes to address independently corneal and scleral tissues. The ocular applicator (OPIA Technologies SAS, Paris, France) is made of polyurethane resin and comprises 2 reservoirs: central circular reservoir (diameter 8 mm, height 4.5 mm, volume 1 ml) and a stainless steel electrode, applied on the cornea surrounded by an annular reservoir (inner diameter 12.5 mm, outer diameter 18 mm height 4.5 mm, volume 1 ml) and a stainless steel electrode, applied on the sclera (pars plana region around the limbus). Each stainless steel electrode connected with a lead to a different constant current generator (anode —positive electrode). The return electrodes were assigned to each generator and respectively attached to the optic nerve (for the corneal electrode) and the equator region of the sclera (for scleral electrode), closing each electrical circuit independently.
Cadaveric eyes. Six human cadaveric eye globes, from different healthy donors, were obtained from the Veneto Eye Bank Foundation (Venezia Zelarino, Italy). […]
(§2) Preparation of the eyes. […] After pre-conditioning, the central corneal thickness (CCT) was measured, using an ultrasound corneal pachymeter (Pachmate, DGH, Exton, USA). […]

Data set [2] is described as follows: Resonance Raman spectroscopy of ocular tissues of human cadaveric eyes after iontophoresis. Format: in vitro ADME. The procedure: as §1
Cadaveric eyes. Six human cadaveric eye globes, from different healthy donors, were obtained from the Veneto Eye Bank Foundation (Venezia Zelarino, Italy). The human eyes were used in compliance with the guidelines of the Declaration of Helsinki for research involving the use of human tissue and were explanted between 3 and 16 hours after death and immediately preserved at 4° C. in corneal storage medium enriched with 6% dextran. The mean donor age was 63.6±5.9 years. The mean endothelial cell density was 2125±389 cells/mm^2. Each eye globe, submerged in dextran enriched solution, was shipped to the laboratory within 5 days. Four eye globes underwent corneo-scleral iontophoresis to deliver 0.1% lutein ophthalmic solution into the retinal tissue. Two eye globes were used as control: iontophoresis was performed without presence of the formulation.
as §2

Each structure is given as a SMILES string.

For the compound `CC1=C[C@H](O)CC(C)(C)[C@H]1/C=C/C(C)=C/C=C/C(C)=C/C=C/C=C(C)/C=C/C=C(C)/C=C/C1=C(C)C[C@@H](O)CC1(C)C` [lutein], the “Lutein distribution within the retina, outer versus inner part” value in data set [1] is “more lutein in the outer part close to the photoreceptors than in the ganglion cells”. The “Lutein in the retina” value in data set [1] is recorded as “abundant in the retina”. The “Raman peak at 1530 cm−1, treated eye versus control eye” value in data set [2] (inner sclera) is 7 times; in data set [2] (retinal mid-periphery) it was 1.7 times. Besides, in data set [2] (macula), the “Raman peak at 1530 cm−1, treated eye versus controls” value came out at 1.3 times.

For the origin of these results see patent US20230329906A1, “INTRAOCULAR DELIVERY OF BIOACTIVE MOLECULES USING IONTOPHORESIS” (KEMIN INDUSTRIES, INC., priority 2014, published 2023).
